# Read-outs that look alike come from different tables or passages of the source.
# Experiments:
# [1] = tested on: cryopreserved human hepatocytes; experiment: Metabolic stability in cryopreserved human hepatocytes; type: in vitro ADME; conditions: for Reaction (soft spots): biotransformations observed in cryopreserved human hepatocytes; for HLH percentage of substrate left at the final time point of analysis: supplement CSV, in brackets, final time point 240 min; for substrate left: cryopreserved human hepatocytes, end of incubation (240 min)
# Procedure: (§1) Cryopreserved human hepatocytes (pooled suspension hepatocytes, Gibco) were thawed placing in a 37 °C shaking water bath according to the manufacturer’s specifications and resuspended in Williams E medium (WEM) to have 1 × 10^6 cells/mL. Samples with the test compound at 1 μM were incubated at 37 °C, and aliquots of 50 μL were collected at 0, 10, 30, 60, 120, and 240 min. The incubations were quenched 1:3 with ice-cold acetonitrile (containing 1 μM labetalol as the internal standard). Samples were then centrifuged at 12000 rpm for 5 min at 4 °C. The supernatant was concentrated by evaporation under a nitrogen stream and reconstituted with DMSO. Blank was prepared similarly but in the absence of the investigated compounds.
# (§2) A Thermo Q-exactive mass spectrometer (Thermo Fisher Scientific, Waltham, MA) was used. The LC system, governed by Chromeleon X-press software, consists of a Binary pump, a thermostated autosampler, and a column compartment, all Dionex Ultimate 3000 series modules (Thermo Fisher Scientific, Waltham, MA). A volume of 2 μL was injected for each sample. Chromatographic separation of analytes was conducted in reverse-phase chromatography. In brief, a Luna Omega 1.6 μm Polar (C18, 2.1 mm × 150 mm) was used, and the mobile phases consisted of water (A) and acetonitrile (B), both containing formic acid at 0.1%. The LC flow was set at 0.400 mL/min in a 12 min gradient elution as follows: 99.5:0.5 (A/B) to 5:95 (A/B) over 10 min, 5:95 (A/B) for 2 min, and then reversion back to 99.5:0.5 (A/B) over 2.5 min. The column was operating at a constant temperature of 40 °C.
# [2] = as above; type: in vitro ADME; conditions: human, cryopreserved human hepatocytes (pooled, suspension)
# Procedure: as §1, §2
# [3] = Table 1, incubation in cryopreserved human hepatocytes, 1 μM, up to 240 min, read-out: t1/2
# [4] = Table S1, PROTACs, cryopreserved human hepatocytes, read-out: t1/2
# [5] = supplement CSV, human hepatocytes, read-out: HLH t1/2
# [6] = Figures 3-5, cryopreserved human hepatocytes, read-out: half-life (t1/2)
# [7] = Table 2, cryopreserved human hepatocytes, read-out: t1/2
# [8] = Table S2, free ligands, cryopreserved human hepatocytes, read-out: t1/2
"half-life at 1 µM [2, 3]","half-life at 1 µM [2, 4]","half-life at 1 µM [2, 5]",HLH percentage of substrate left at the final time point of analysis [1],"half-life at 1 µM [2, 6]",substrate left [1],"half-life at 1 µM [2, 7]","half-life at 1 µM [2, 8]",SMILES,Reaction (soft spots) ([1]; Table 1),Reaction (soft spots) ([1]; Table 2)
55.1 min,55.1 min,55.1 min,,,,,,"Cc1sc2c(c1C)C(c1ccc(Cl)cc1)=N[C@@H](CC(=O)NCCCCCCCCNc1cccc3c1C(=O)N(C1CCC(=O)NC1=O)C3=O)c1nnc(C)n1-2 (stereo partly drawn) [Compound 4, 2-((S)-4-(4-Chlorophenyl)-2,3,9-trimethyl-6H-thieno[3,2-f][1,2,4]triazolo[4,3-a][1,4]diazepin-6-yl)-N-(8-((2-(2,6-dioxopiperidin-3-yl)-1,3-dioxoisoindolin-4-yl)amino)octyl)acetamide]",a. N-dealkylation (x2) b. Aliphatic-hydroxylation c. Dehydrogenation*,
,8.4 min,8.4 min,,8.4 min,,8.4 min,,"O=C(COc1cccc2c1C(=O)N(C1CCC(=O)NC1=O)C2=O)NCCCCCCCCNC(=O)COc1c(-c2csc(N3CCOCC3)n2)ccc(F)c1F (stereo not drawn) [Compound 26, 2-(2,3-Difluoro-6-(2-morpholinothiazol-4-yl)phenoxy)-N-(8-(2-((2-(2,6-dioxopiperidin-3-yl)-1,3-dioxoisoindolin-4-yl)oxy)acetamido)octyl)acetamide]",,a. Amide hydrolysis b. N-dealkylation c. O-dealkylation
,39.4 min,39.4 min,,,,39.4 min,,"O=C(COc1cccc2c1C(=O)N(C1CCC(=O)NC1=O)C2=O)NCCOCCOCCNC(=O)COc1c(-c2csc(N3CCOCC3)n2)ccc(F)c1F (stereo not drawn) [Compound 27, 2-(2,3-Difluoro-6-(2-morpholinothiazol-4-yl)phenoxy)-N-(2-(2-(2-(2-((2-(2,6-dioxopiperidin-3-yl)-1,3-dioxoisoindolin-4-yl)oxy)acetamido)ethoxy)ethoxy)ethyl)acetamide]",,a. Amide hydrolysis b. O-dealkylation (x3) c. Aliphatic-hydroxylation
,47.6 min,47.6 min,,,,47.6 min,,"O=C(COc1c(-c2csc(N3CCOCC3)n2)ccc(F)c1F)NCCCCCCCCNc1cccc2c1C(=O)N(C1CCC(=O)NC1=O)C2=O (stereo not drawn) [Compound 30, 2-(2,3-Difluoro-6-(2-morpholinothiazol-4-yl)phenoxy)-N-(8-((2-(2,6-dioxopiperidin-3-yl)-1,3-dioxoisoindolin-4-yl)amino)octyl)acetamide]",,a. Amide hydrolysis b. N-dealkylation c. O-dealkylation d. Aliphatic-hydroxylation
,45.3 min,45.3 min,,,,,,"O=C1CCC(N2C(=O)c3cccc(NCCOCCOCCOc4c(-c5csc(N6CCOCC6)n5)ccc(F)c4F)c3C2=O)C(=O)N1 (stereo not drawn) [Compound 32, 4-((2-(2-(2-(2,3-Difluoro-6-(2-morpholinothiazol-4-yl)phenoxy)ethoxy)ethoxy)ethyl)amino)-2-(2,6-dioxopiperidin-3-yl)isoindoline-1,3-dione]",,

# Continued, compound first:
SMILES,"half-life at 1 µM [2, 3]","half-life at 1 µM [2, 4]","half-life at 1 µM [2, 5]",HLH percentage of substrate left at the final time point of analysis [1],"half-life at 1 µM [2, 6]",substrate left [1],"half-life at 1 µM [2, 7]","half-life at 1 µM [2, 8]",Reaction (soft spots) ([1]; Table 1),Reaction (soft spots) ([1]; Table 2)
"Cc1ncsc1-c1ccc([C@H](C)NC(=O)[C@@H]2C[C@@H](O)CN2C(=O)[C@@H](NC(=O)CCN2CCN(C(=O)C[C@@H]3N=C(c4ccc(Cl)cc4)c4c(sc(C)c4C)-n4c(C)nnc43)CC2)C(C)(C)C)cc1 [Compound 11, (2S,4R)-1-((S)-2-(3-(4-(2-((S)-4-(4-Chlorophenyl)-2,3,9-trimethyl-6H-thieno[3,2-f][1,2,4]triazolo[4,3-a][1,4]diazepin-6-yl)acetyl)piperazin-1-yl)propanamido)-3,3-dimethylbutanoyl)-4-hydroxy-N-((S)-1-(4-(4-methylthiazol-5-yl)phenyl)ethyl)pyrrolidine-2-carboxamide]",,> 240 min,> 240 min,70.0%,> 240 min,,,,,
"Cc1ncsc1-c1ccc([C@H](C)NC(=O)[C@@H]2C[C@@H](O)CN2C(=O)[C@@H](NC(=O)CCCCn2cc(CN3CCN(C(=O)c4cc(Cc5n[nH]c(=O)c6ccccc56)ccc4F)CC3)nn2)C(C)(C)C)cc1 [Compound 24, (2S,4R)-1-((S)-2-(5-(4-((4-(2-Fluoro-5-((4-oxo-3,4-dihydrophthalazin-1-yl)methyl)benzoyl)piperazin-1-yl)methyl)-1H-1,2,3-triazol-1-yl)pentanamido)-3,3-dimethylbutanoyl)-4-hydroxy-N-((S)-1-(4-(4-methylthiazol-5-yl)phenyl)ethyl)pyrrolidine-2-carboxamide]",,> 240 min,> 240 min,84.3%,> 240 min,about 84%,,,,
"Cc1ncsc1-c1ccc([C@H](C)NC(=O)[C@@H]2C[C@@H](O)CN2C(=O)[C@@H](NC(=O)CCCCn2cc(CCCC(=O)N3CCN(C(=O)c4cc(Cc5n[nH]c(=O)c6ccccc56)ccc4F)CC3)nn2)C(C)(C)C)cc1 [Compound 25, (2S,4R)-1-((S)-2-(5-(4-(4-(4-(2-Fluoro-5-((4-oxo-3,4-dihydrophthalazin-1-yl)methyl)benzoyl)piperazin-1-yl)-4-oxobutyl)-1H-1,2,3-triazol-1-yl)pentanamido)-3,3-dimethylbutanoyl)-4-hydroxy-N-((S)-1-(4-(4-methylthiazol-5-yl)phenyl)ethyl)pyrrolidine-2-carboxamide]",,> 240 min,> 240 min,84.7%,> 240 min,about 84%,,,,
Cc1ncsc1-c1ccc([C@H](C)NC(=O)[C@@H]2C[C@@H](O)CN2C(=O)[C@@H](NC(=O)COCCCNC(=O)COc2c(-c3csc(N4CCOCC4)n3)ccc(F)c2F)C(C)(C)C)cc1 [Compound 36],,25.2 min,25.2 min,,,,,,,
Cc1ncsc1-c1ccc([C@H](C)NC(=O)[C@@H]2C[C@@H](O)CN2C(=O)[C@@H](NC(=O)COCCOCCNC(=O)COc2c(-c3csc(N4CCOCC4)n3)ccc(F)c2F)C(C)(C)C)cc1 [Compound 37],37.6 min,37.6 min,37.6 min,,,,,,a. O-dealkylation (x5) b. Amide Hydrolysis (x2) c. Glucuronidation d. Dehydrogenation,
Cc1ncsc1-c1ccc([C@H](C)NC(=O)[C@@H]2C[C@@H](O)CN2C(=O)[C@@H](NC(=O)CCCCCCCOc2c(-c3csc(N4CCOCC4)n3)ccc(F)c2F)C(C)(C)C)cc1 [Compound 38],,67.6 min,67.6 min,,,,,,,
Cc1ncsc1-c1ccc([C@H](C)NC(=O)[C@@H]2C[C@@H](O)CN2C(=O)[C@@H](NC(=O)CCCCn2cc(COc3c(-c4csc(N5CCOCC5)n4)ccc(F)c3F)nn2)C(C)(C)C)cc1 [Compound 39],,40.1 min,40.1 min,,40.1 min,,,,,
"Nc1cccc2c1C(=O)N(C1CCC(=O)NC1=O)C2=O (stereo not drawn) [Compound 41, pomalidomide, reference compound]",140 min,,140 min,,,,,140 min,a. Amide Hydrolysis (x4),
"Cc1ncsc1-c1ccc([C@H](C)NC(=O)[C@@H]2C[C@@H](O)CN2C(=O)[C@@H](N)C(C)(C)C)cc1 [Compound 42, reference compound]",92 min,,92 min,,,,,92 min,a. N-dealkylation b. Aromatic hydroxylation c. Aliphatic-hydroxylation d. Aliphatic-carbonylation,
"O=C(O)c1ccc2c(c1)nc(Nc1cccc(Cl)c1)c1ccncc12 [Compound 44, CX4945, reference compound]",,,99.7 min,,,,,99.7 min,,
